# According to patent publication US10202604B2, “Methods of using microRNA-141” (Stemirna Therapeutics Co., Ltd., priority 2016, dated 2019):
# Tested on: CD44+ Du145 cells
# Assay: Clonal and sphere formation assays
# Assay type: cell-based, human
# Conditions: miR-141 vs NC oligos, 30 nM, 48 h transfection
# Procedure: Average % of CD44^+ cells (as determined by flow analysis; n=3-5) is indicated for each cell type (UD, undetectable). […] Purified CD44^+ Du145 cells were transfected with NC or miR-141 oligos (30 nM, 48 h) and then plated for clonal (1D & 1E) and sphere (1F) assays. Bars represent mean±SD. *, P<0.05; **, P<0.01. […] Shown are tumor images, cell numbers injected (100,000 cells per injection for all models), site of injection (s.c, subcutaneously) and days (d) when tumors were harvested. Tumor weight and incidences with corresponding P values are also indicated. ns, not significant. […] For 1st generation (1°) sphere assays, 1,000 cells per well were plated in triplicate for each group in 12-well plate and results scored in 11 days. For 2nd generation (2°), the 1° spheres were harvested, digested with Collagenase and Trypsin into single cells, 1,000 cells/well were plated, and results scored in 10 days. Quantification of the colonies was plotted (1 L; **P<0.01). […]
# For clonal assays, cultured prostate cancer cells or human prostate cancer cells freshly purified from patient primary tumors were plated at a clonal density (i.e., 100 cells/well) in a 6-well plate. The number of holoclones (33) was counted several days later. […] Floating spheres that arose in 1-2 weeks were counted. […]
substance,measurement,value
"miR-141: miR-141 mirVana mimics (Life Technologies); microRNA-141 oligonucleotide may have SEQ ID NO: 1; in some experiments over-expressed by lentiviral vectors (UAACACUGUCUGGUAAAGAUGG; listed as RNA, further chemistry not given here) [miR-141 mirVana mimics (Life Technologies); in some experiments over-expressed by lentiviral vectors]",clonogenic capacity,inhibited
same,sphere-forming capacity,inhibited
